Measurements from patent EP0016703A1, “Lysine salt of (+/-) 3-amino-4-(1-pyrrolyl)-alpha-methylphenyl-acetic acid, process for its preparation and pharmaceutical composition containing it” (LIPHA, LYONNAISE INDUSTRIELLE PHARMACEUTIQUE, priority 1979, dated 1980).
Where two headings read alike, the source gives them in different places.

Columns and labels:
[1] = system: contractions douloureuses; assay: Analgesic activity, acetic acid writhing test (Koster et al.); format: in vivo; details: souris, Administration P.O, dose that reduces the number of painful contractions by 50 %
Description: B - L'activité analgésique a été déterminée chez 1a souris par la méthode de KOSTER et Col. (Fed. Proc. 1959, 18, 412). On détermine la dose efficace 50, dose qui administrée P.O. diminue de 50 % le nombre des contractions douloureuses déclenchées par l'injection in- trapéritonéale d'une solution diluée d'acide acétique.

oedème à la carragénine = assay: Anti-inflammatory activity, carrageenan oedema test (Winter et al.); format: in vivo; details: Administration P.O, dose that inhibits the oedema by 30 %; for ED30: Rattus norvegicus, po, read-out: Oedème à la carra-génine DE.30
Description: C - L'activité anti-inflammatoire a été démontrée par le test de l'oedème à la carragénine, selon WINTER et Col. (Proc. Exp. Biol. Med., 1962, 111, 544. On recherche .la protection que confère le traitement par le pro- duit administré P.O. au rat, vis à vis d'un oedème déclenché par injection sous la voûte plantaire, d'une suspension de carragénine. La dose efficace 30 est celle qui inhibe l'oedème de 30 %.

érythème aux U.V. = assay: Protection against early inflammation, UV erythema method (Winder et al.); format: in vivo; details: cobaye albinos, Administration P.O, dose that moderates erythema intensity by 50 %; for ED50: Cavia porcellus, po, read-out: Erythème aux U.V. DE.50
Description: D - L'activité protectrice vis-à-vis de l'inflammation précoce a été mise en évidence sur le cobaye albinos selon la méthode de l'érythème aux U.V. (WINDER et Col., Arch. Int. Pharmacodyn. 1958, 116, 261). La dose efficace 50 est la dose qui.donnée P.O., modère de 50 % l'intensité de l'érythème induit par exposition à un rayonnement U.V. de la surface dorsale épilée des cobayes.

in vivo = details: in vivo
Description: (§1) A - La DL 50 a été déterminée chez la souris et le rat par les voies orale et I.V., selon MILLER et TAINTER (Proc. Soc. Exp. Biol. Medecine, 1944, 57, 261.

Solubility in water = format: physicochemical
souris = assay: in vivo; details: P.O.
Description: as §1

rat = assay: in vivo
Description: as §1

SMILES | Acide acétique DE.50 [1] [mg/kg] | ED30 (oedème à la carragénine) [mg/kg] | ED50 (érythème aux U.V.) [mg/kg] | LD50 (in vivo; mouse, po, souris, P.O., read-out: DL. 50 souris P.O.) [mg/kg] | LD50 (in vivo; rat, po, P.O., read-out: DL. 50 rat P.O.) [mg/kg] | Oedème à la carra-génine DE.30 (oedème à la carragénine; rat) [mg/kg] | solubilité dans l'eau (Solubility in water) | Erythème aux U.V. DE.50 (érythème aux U.V.) | DL. 50 souris P.O. (souris) [mg/kg] | DL. 50 rat P.O. (rat) [mg/kg] | LD50 (in vivo; mouse, iv, souris, I.V., read-out: DL. 50 souris I.V.) [mg/kg] | ED50 ([1]; Mus musculus, po, read-out: Acide acétique DE.50) [mg/kg]
CC(C(=O)O)c1ccc(-n2cccc2)c(N)c1 (racemic) [Composé B, acide (±) amino-3 (pyrrolyl-1') -4α- méthyl phényl acétique] | 19 | 12 | 4.7 | 3000 | 392 ± 50 | – | – | – | – | – | – | –
CC(C(=O)O)c1ccc(-n2cccc2)c(N)c1 (racemic) [Composé C, sel de (±) lysine de l'acide (±) amino-3 (pyrrolyl-l')-4 α- méthyl phénylacétique] | 42 | – | – | – | – | 15 | parfaite solubilité dans l'eau | 4,8 mg/kg | >3200 | 697 ± 103 | > 1600 | –
CCCCC1C(=O)N(c2ccccc2)N(c2ccccc2)C1=O [Phénylbuta-zone, butyl-4 diphényl-1,2 pyrazolidine dione-3,5] | – | 35 | 3.7 | – | – | – | – | – | – | – | – | 93
